How the values were obtained:
Assay type in all cases: cell-based
[1] = system: HeLa cells; assay: Proliferation of control and SIRT4-expressing HeLa cells; details: media containing BPTES
[2] = system: SIRT4 KO MEFs; assay: Proliferation of SIRT4 KO MEFs; details: SIRT4 KO versus WT MEFs cultured with BPTES
Description: To test whether enhanced glutamine metabolism drove the proliferative phenotype of KO cells, cells were cultured with BPTES and proliferation was measured.

[3] = system: SIRT4 KO cells; assay: Glutamine uptake of SIRT4 KO cells with glutaminolysis inhibitors; details: for glutamine uptake: 10 μM BPTES, 50 μM EGCG
Description: (§1) As described above, SIRT4 represses glutamine-derived mitochondrial anaplerosis. This node was investigated further using a pharmacological and genetic approach. GLS is the first required enzyme for mitochondrial glutamine metabolism, and catalyzes the hydrolysis of glutamine to glutamate and ammonia. […] Drugs that block glutamate dehydrogenase (GDH) activity were also examined. There were no effects of a GDH inhibitor, 50 μM of Epigallocatechin gallate (EGCG), in glutamine uptake. Moreover, SIRT4 overexpression could no longer inhibit glutamine uptake and ammonia production when GLS1 was targeted using short hairpin RNA (shRNA) (FIG. 13b, c). Finally, cells were treated with chemical inhibitors of mitochondrial glutaminolysis in order to probe the model that suppressing this node could block the repression of glutamine uptake by DNA damage.

[4] = system: mitochondrial glutaminolysis; assay: Repression of glutamine uptake by UV in the presence of inhibitors of mitochondrial glutaminolysis; details: in the presence of the inhibitor
Description: as §1

[5] = system: SIRT4 protein; assay: SIRT4 protein expression by western blot, HEK293T cells
[6] = system: SIRT4 protein; assay: SIRT4 protein expression by western blot, MEF cells
[7] = system: HepG2 cells; assay: Relative ATP/ADP ratio of HepG2 cells stably expressing human SIRT4 or SIRT4 mutant; details: CPT (14 μM) + oligomycin (5 g/ml) for 18 hours
Description: The relationship between SIRT4 and mitochondrial metabolism was next investigated. The relative ATP/ADP ratio of HepG2 cells that stably expressed human SIRT4 or SIRT4 mutant was measured following treatment with DMSO, CPT (14 μM) or CPT+oligomycin ([…]) for 18 hours.

[8] = system: MEF cells; assay: Metabolite levels in culture media (BioProfile FLEX analyzer), MEF cells; details: 14 μM for 12 hours
Description: (§2) The relationship between glutamine metabolism and DNA damage was investigated. HepG2 cells and MEF cells were treated with either 14 μM camptothecin (CPT) for 12 hours or 50 J/m^2 ultra-violet (UV) radiation, both of which are known to induce DNA damage in cells. Glucose, glutamine, lactate and ammonia (NH4^+) levels in culture media were measured using the BioProfile FLEX analyzer (Nova Biomedical) according to the manufacturer's instructions.

[9] = system: HepG2 cells; assay: Metabolite levels in culture media (BioProfile FLEX analyzer), HepG2 cells; details: 14 μM for 12 hours
Description: as §2

[10] = system: SIRT4; assay: SIRT4 expression level after genotoxic stress, HEK293T cells; details: 14 μM CPT, 25 μM ETS, 48 μM tunicamycin
From the text: The relationship between sirtuin expression and DNA damage was next investigated.

For `O=C(Cc1ccccc1)Nc1nnc(CCSCCc2nnc(NC(=O)Cc3ccccc3)s2)s1` [BPTES, bis-2-(5-phenylacetoamido-1,2,4-thiadiazol-2-yl)ethyl sulfide], which “proliferation of control and SIRT4-expressing cells” value [1] is on record?
Its value is “proliferated at similar rates”.

What about the “increased proliferation of KO cells” value [2] of the same molecule?
The value was “completely abrogated”.

What about the “increased glutamine consumption of SIRT4 KO cells” value ([3]; 10 μM) of the same molecule?
Its value is “rescued”.

And the glutamine uptake [3]?
The glutamine uptake was “repressed glutamine uptake”.

And the “repression of glutamine uptake by UV treatment” value [4]?
Its value is “could no longer repress glutamine uptake”.

Which SIRT4 protein expression [5] does the source give for `COc1cc([C@@H]2c3cc4c(cc3[C@@H](O[C@@H]3O[C@@H]5CO[C@@H](C)O[C@H]5[C@H](O)[C@H]3O)[C@H]3COC(=O)[C@H]23)OCO4)cc(OC)c1O` [ETS, etoposide] here?
The SIRT4 protein expression was “increased SIRT4 protein expression”.

And the SIRT4 protein expression [6]?
The SIRT4 protein expression was “increased SIRT4 protein expression”.

Which “difference in ATP/ADP ratio between SIRT4 and mutant SIRT4 over-expressing cells after CPT” value [7] does the source give for `CC[C@H]1/C=C/C=C/C[C@@H](C)[C@H](O)[C@@](C)(O)C(=O)[C@@H](C)[C@H](O)[C@@H](C)C(=O)[C@@H](C)[C@H](O)[C@@H](C)/C=C/C(=O)O[C@@H]2[C@H](C)[C@H](CC1)O[C@]1(CC[C@H](C)[C@H](C[C@@H](C)O)O1)[C@H]2C` [oligomycin] here?
The value was “difference disappeared”.

Which “NH4+ production” value [8] does the source give for `CC[C@@]1(O)C(=O)OCc2c1cc1n(c2=O)Cc2cc3ccccc3nc2-1` [CPT, camptothecin] here?
The value was “significant reductions”.

And the glutamine consumption [8]?
Its glutamine consumption is “significant reductions”.

And the “NH4+ production” value [9]?
Its value is “significant reductions”.

What about the glutamine consumption [9] of the same molecule?
The glutamine consumption was “significant reductions”.

What about the SIRT4 protein expression [5] of the same molecule?
Its SIRT4 protein expression is “increased SIRT4 protein expression”.

What about the SIRT4 protein expression [6] of the same molecule?
Its SIRT4 protein expression is “increased SIRT4 protein expression”.

And the “level of SIRT4 expression versus length of exposure” value [10]?
The value was “correlated with the length of time”.

With tunicamycin as the molecule, how does the “level of SIRT4 expression versus length of exposure” value [10] read?
Its value is “correlated with the length of time”.

How did the glutamine uptake [3] turn out when `O=C(O[C@@H]1Cc2c(O)cc(O)cc2O[C@@H]1c1cc(O)c(O)c(O)c1)c1cc(O)c(O)c(O)c1` [EGCG, Epigallocatechin gallate] was run?
Its glutamine uptake is “no effects”.

— US20140186325A1, “Methods of Cancer Treatment and Prevention Through the Modulation of SIRT4 Activity” (President and Fellows of Harvard College, priority 2011, published 2014)
